pIC50: −log10 of the molar value.
Experiments:
[1] = target: recombinant His-tag Wip1 full length protein (amino acids #1-605) (Homo sapiens (Human), UniProt O15297); experiment: Wip1 full length phosphatase enzyme FDP assay; assay type: biochemical; conditions: fluorescein diphosphate (FDP) substrate, RT 2 hours, fluorescence Ex485/Em535
Procedure: The Human Wip1 (2-420, aa 2-420) or Wip1 full length (aa 1-605) DNA sequence was codon optimized and synthesized by Genscript for insect cell expression. The open reading frame of Wip1(2-420) with a N-terminal-His6 affinity tag followed by a TEV cleavage site was subcloned sites into the pFastBac1 expression vector. The recombinant bacmid DNA was transfected in Sf9 insect cells for baculovirus production. After 72 hours infection, the Sf9 cells were harvested by centrifugation and resuspended in lysis buffer containing 50 mM Tris/HCl, pH 8.0, 500 mM NaCl, 20% glycerol, Benzonase 0.5% CHAPS and Roche cOmplete™ EDTA free protease inhibitors. Cells were disrupted with microfluidizer and the debris was removed by centrifugation at 185,000 g for 1 hour. The supernatant was subjected to HisTrap FF for affinity purification. Proteins were eluted with a linear gradient of 0-500 mM imidazole in HisTrap buffer containing 50 mM Tris/HCl, pH 8.0, 500 mM NaCl and 20% glycerol, 0.05% CHAPS. The eluted protein was dialyzed against dialysis buffer (20 mM MES, 100 mM NaCl, 20% glycerol, 0.5 mM TCEP, 0.05% CHAPS) followed purification via HiTrap SP HP column. The protein was eluted with a gradient of 100 mM-2 M NaCl in dialysis buffer. His6-[…] was finally concentrated and loaded onto a size-exclusion column (NiLoad 16/600 Superdex 200 pg, GE Healthcare) pre-equilibrated with 50 mM MOPS (pH 7.5), 200 mM NaCl, 20% glycerol, 1 mM TCEP, 0.05% CHAPS and 0.1 mM EGTA. The peak fractions containing purified Nis6-Wip1(2-420) were pooled and concentrated to 1.0 mg/mL and flash frozen at −80° C.
Wip1 Length and Wip1(2-420) Phosphatase Enzyme FDP Assays.
Test compounds (252 mM stock in DMSO) were diluted 3 folds in series in DMSO and 1.2 μl per well were added into 384-well polypropylene black plates (Nunc). Twelve μl per well of Assay Buffer (100 mM NaCl, 50 mM MOPS, pH 7.5, 0.8 mM CHAPS, 0.1 mM EGTA, 30 mM MgCl2, 0.3 mM TCEP, 0.2 mg/mL BSA) was added followed by […] per well of 50.4 nM recombinant His-tag Wip1 full length protein (amino acids #1-605) or recombinant His-tag Wip1(2-420) protein (amino acids #2-420) in Assay Buffer and the plate was incubated at RT (22° C.) for 5 min. Ten mM of fluorescein diphosphate (FDP) in DMSO was diluted to […] in Assay Buffer and […] per well was added to the plate and incubated at RT (22° C.) for 2 hours. […] per well of 64.1 mM EDTA in water were added to stop the enzyme reaction. The plate was centrifuged at 1,200 rpm (Eppendorf 5810R Plate centrifuge) for 1 minute and fluorescence intensity (Ex485/Em535) was measured on Perkin Elmer Victor Reader. EC50 values were calculated using either Prism (GraphPad) or ActivityBase software (IDBS), The IC50 results are provided in Table M.

[2] = target: recombinant His-tag Wip1(2-420) protein (amino acids #2-420) (Homo sapiens (Human), UniProt O15297); experiment: Wip1(2-420) phosphatase enzyme FDP assay; assay type: biochemical; conditions: fluorescein diphosphate (FDP) substrate, RT 2 hours, fluorescence Ex485/Em535; read-out: WIP1 (Truncated 2-420) FDP Assay: IC50
Chain of recombinant His-tag Wip1(2-420) protein (amino acids #2-420) (O15297 2-420): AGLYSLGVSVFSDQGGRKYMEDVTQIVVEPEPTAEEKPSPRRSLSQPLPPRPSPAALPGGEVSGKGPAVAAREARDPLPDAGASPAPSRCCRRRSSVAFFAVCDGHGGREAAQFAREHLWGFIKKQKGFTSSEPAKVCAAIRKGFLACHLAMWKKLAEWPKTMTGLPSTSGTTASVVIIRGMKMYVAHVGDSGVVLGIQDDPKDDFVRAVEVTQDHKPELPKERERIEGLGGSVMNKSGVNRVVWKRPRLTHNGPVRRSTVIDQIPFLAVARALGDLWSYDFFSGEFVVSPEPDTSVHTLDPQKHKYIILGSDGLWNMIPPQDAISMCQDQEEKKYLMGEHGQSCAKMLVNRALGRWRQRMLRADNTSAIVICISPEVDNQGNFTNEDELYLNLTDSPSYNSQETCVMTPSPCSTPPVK

Chain of recombinant His-tag Wip1 full length protein (amino acids #1-605) (O15297 whole entry, the tested form may be a part): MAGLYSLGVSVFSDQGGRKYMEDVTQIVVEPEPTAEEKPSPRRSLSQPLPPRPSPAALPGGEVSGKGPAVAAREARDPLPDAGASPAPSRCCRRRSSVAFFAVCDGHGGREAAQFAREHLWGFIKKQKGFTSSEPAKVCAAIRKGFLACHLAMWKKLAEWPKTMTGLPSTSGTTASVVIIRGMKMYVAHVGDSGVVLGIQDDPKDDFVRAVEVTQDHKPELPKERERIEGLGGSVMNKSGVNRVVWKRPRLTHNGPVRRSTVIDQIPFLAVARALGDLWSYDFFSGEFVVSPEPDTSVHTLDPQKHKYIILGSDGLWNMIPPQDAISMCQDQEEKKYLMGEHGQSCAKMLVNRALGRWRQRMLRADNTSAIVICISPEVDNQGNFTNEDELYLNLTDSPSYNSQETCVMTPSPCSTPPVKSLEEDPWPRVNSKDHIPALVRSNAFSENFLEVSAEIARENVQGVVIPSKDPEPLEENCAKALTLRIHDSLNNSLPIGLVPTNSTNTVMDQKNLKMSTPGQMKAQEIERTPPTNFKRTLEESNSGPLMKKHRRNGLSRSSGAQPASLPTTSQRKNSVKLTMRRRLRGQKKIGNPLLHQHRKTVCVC

Compound	pIC50 [1]	pIC50 [2]
Cc1ncc(Cl)cc1N[C@@H](C)c1ccc(C(=O)N[C@@H](CC2CCCC2)C(=O)Nc2ccc(F)cc2)s1 [Compound 18, (2S)-2-({5-[(1S)-1-[(5-chloro-2-methylpyridin-3-yl)amino]ethyl]thiophen-2-yl}formamido)-3-cyclopentyl-N-(4-fluorophenyl)propanamide]	8.10	8.15
COc1ncc(Cl)cc1N[C@@H](C)c1ccc(C(=O)N[C@@H](CC2CCCC2)C(=O)NC2CC2)s1 [Compound 38, (2S)-2-({5-[(1S)-1-[(5-chloro-2-methoxypyridin-3-yl)amino]ethyl]thiophen-2-yl}formamido)-3-cyclopentyl-N-cyclopropylpropanamide]	8.05	8.15
Cc1cc(NC(=O)[C@H](CC2CCCC2)NC(=O)c2cnc([C@H](C)Nc3cccc(Cl)c3)s2)ccn1 [Compound 119, (2S)-2-({2-[(1S)-1-[(3-chlorophenyl)amino]ethyl]-1,3-thiazol-5-yl}formamido)-3-cyclopentyl-N-(2-methylpyridin-4-yl)propanamide]	6.94	7.15
Cc1ncc(Cl)cc1N[C@@H](C)c1ccc(C(=O)N[C@@H](CC2CCCC2)C(=O)NC2CC2)s1 [Compound 8, 5-[(1S)-1-[(5-chloro-2-methyl-3-pyridyl)amino]ethyl]-N-[(1S)-1-(cyclopentylmethyl)-2-(cyclopropylamino)-2-oxo-ethyl]thiophene-2-carboxamide]	7.96	8.10
Cc1ncc(Cl)cc1N[C@@H](C)c1ccc(C(=O)N[C@@H](CC2CCCC2)C(=O)NC2CCN(C)CC2)s1 [Compound 32, (2S)-2-({5-[(1S)-1-[(5-chloro-2-methylpyridin-3-yl)amino]ethyl]thiophen-2-yl}formamido)-3-cyclopentyl-N-(1-methylpiperidin-4-yl)propanamide]	7.14	7.32
Cc1ncc(Cl)cc1N[C@@H](C)c1ccc(C(=O)N[C@@H](CC2CCCC2)C(=O)NC23CC(C2)C3)s1 [Compound 11, (2S)-N-{bicyclo[1.1.1]pentan-1-yl}-2-({5-[(1S)-1-[(5-chloro-2-methylpyridin-3-yl)amino]ethyl]thiophen-2-yl}formamido)-3-cyclopentylpropanamide]	8.05	8.22
C[C@@H](c1ccc(C(=O)N[C@@H](CC2CCCC2)C(=O)NC2CC2)s1)N1CCc2cc(F)c(Cl)cc21 [Compound 56, (2S)-2-({5-[(1S)-1-(6-chloro-5-fluoro-2,3-dihydro-1H-indol-1-yl)ethyl]thiophen-2-yl}formamido)-3-cyclopentyl-N-cyclopropylpropanamide]	7.30	7.41
COc1ncc(Cl)cc1N[C@@H](C)c1ccc(C(=O)N[C@@H](CC2CCCC2)C(=O)NC23CC(C2)C3)s1 [Compound 60, (2S)-N-{bicyclo[1.1.1]pentan-1-yl}-2-({5-[(1S)-1-[(5-chloro-2-methoxypyridin-3-yl)amino]ethyl]thiophen-2-yl}formamido)-3-cyclopentylpropanamide]	8.15	8.22
CC(c1ccc(C(=O)N[C@@H](CC2CCCC2)C(=O)NC2CC2)s1)N1CCc2cc(F)c(Cl)cc21 (stereo partly drawn) [Compound 46, (2S)-2-({5-[1-(6-chloro-5-fluoro-2,3-dihydro-1H-indol-1-yl)ethyl]thiophen-2-yl}formamido)-3-cyclopentyl-N-cyclopropylpropanamide]	7.64	7.80
Cc1ncc(Cl)cc1N[C@@H](C)c1ccc(C(=O)N[C@@H](CC2CCCC2)C(=O)NC23CC(C)(C2)C3)s1 [Compound 17, (2S)-2-({5-[(1S)-1-[(5-chloro-2-methylpyridin-3-yl)amino]ethyl]thiophen-2-yl}formamido)-3-cyclopentyl-N-{3-methylbicyclo[1.1.1]pentan-1-yl}propanamide]	8.22	8.15
Cc1ncc(Cl)cc1N[C@@H](C)c1ccc(C(=O)N[C@@H](CCC(C)(C)C)C(=O)Nc2cnn(C)c2)s1 [Compound 160, (2S)-2-({5-[(1S)-1-[(5-chloro-2-methylpyridin-3-yl)amino]ethyl]thiophen-2-yl}formamido)-5,5-dimethyl-N-(1-methyl-1H-pyrazol-4-yl)hexanamide]	7.89	8.05

Other lines, results leading:

pIC50 [1]	pIC50 [2]	Compound
8.05	8.15	Cc1ncc(Cl)cc1N[C@@H](C)c1ccc(C(=O)N[C@@H](CC2CCCC2)C(=O)NC2CC(C)C2)s1 (stereo partly drawn) [Compound 76, (2S)-2-({5-[(1S)-1-[(5-chloro-2-methylpyridin-3-yl)amino]ethyl]thiophen-2-yl}formamido)-3-cyclopentyl-N-(3-methylcyclobutyl)propanamide]
7.64	7.74	Cc1ncc(Cl)cc1N[C@@H](C)c1ccc(C(=O)N[C@H](C(=O)Nc2cnn(C)c2)C2CCCCC2)s1 [Compound 177, (2S)-2-({5-[(1S)-1-[(5-chloro-2-methylpyridin-3-yl)amino]ethyl]thiophen-2-yl}formamido)-2-cyclohexyl-N-(1-methyl-1H-pyrazol-4-yl)acetamide]
8.15	8.52	Cc1ncc(Cl)cc1N[C@@H](C)c1ccc(C(=O)N[C@@H](CC2CCCC2)C(=O)N[C@H]2C[C@H](F)C2)s1 [Compound 29, (2S)-2-({5-[(1S)-1-[(5-chloro-2-methylpyridin-3-yl)amino]ethyl]thiophen-2-yl}formamido)-3-cyclopentyl-N-[(1r,3r)-3-fluorocyclobutyl]propanamide]
7.70	7.89	COc1ncc(Cl)cc1N[C@@H](C)c1ccc(C(=O)N[C@@H](CC2CCCC2)C(=O)NC23CC(C#N)(C2)C3)s1 [Compound 82, (2S)-2-({5-[(1S)-1-[(5-chloro-2-methoxypyridin-3-yl)amino]ethyl]thiophen-2-yl}formamido)-N-{3-cyanobicyclo[1.1.1]pentan-1-yl}-3-cyclopentylpropanamide]
8.00	8.22	CCNC(=O)[C@H](CC1CCCC1)NC(=O)c1ccc([C@H](C)Nc2cc(Cl)cnc2C)s1 [Compound 77, (2S)-2-({5-[(1S)-1-[(5-chloro-2-methylpyridin-3-yl)amino]ethyl]thiophen-2-yl}formamido)-3-cyclopentyl-N-ethylpropanamide]
8.05	8.15	Cc1ncc(Cl)cc1N[C@@H](C)c1ccc(C(=O)N[C@@H](CC2CCCC2)C(=O)NC23CC(C(N)=O)(C2)C3)s1 [Compound 45, 3-[(2S)-2-({5-[(1S)-1-[(5-chloro-2-methylpyridin-3-yl)amino]ethyl]thiophen-2-yl}formamido)-3-cyclopentylpropanamido]bicyclo[1.1.1]pentane-1-carboxamide]
8.00	8.15	Cc1ncc(Cl)cc1N[C@@H](Cc1cnn(C)c1)c1ccc(C(=O)N[C@@H](CC2CCCC2)C(=O)NC2CC2)s1 [Compound 171, (2S)-2-({5-[(1S)-1-[(5-chloro-2-methylpyridin-3-yl)amino]-2-(1-methyl-1H-pyrazol-4-yl)ethyl]thiophen-2-yl}formamido)-3-cyclopentyl-N-cyclopropylpropanamide]
7.17	7.10	C[C@@H](Nc1ccc(F)c(Cl)c1)c1ccc(C(=O)N[C@@H](CC2CCCC2)C(=O)NC2CC2)s1 [Compound 7, 5-[(1R)-1-(3-chloro-4-fluoro-anilino)ethyl]-N-[(1S)-1-(cyclopentylmethyl)-2-(cyclopropylamino)-2-oxo-ethyl]thiophene-2-carboxamide]
8.00	8.22	Cc1cc(NC(=O)[C@H](CC2CCCC2)NC(=O)c2ccc([C@H](C)Nc3cc(Cl)cnc3C)s2)cc(C)n1 [Compound 62, (2S)-2-({5-[(1S)-1-[(5-chloro-2-methylpyridin-3-yl)amino]ethyl]thiophen-2-yl}formamido)-3-cyclopentyl-N-(2,6-dimethylpyridin-4-yl)propanamide]

Source: patent US20240116910A1, “Heterocycles as WIP1 Inhibitors” (PMV Pharmaceuticals, Inc., priority 2022, published 2024)
